Measurements: the supplement of paper PMC9663587

Columns and labels:
[1] = compound: C=CC(=O)Nc1ccc(C(=O)Nc2[nH]nc3c2CN(C(=O)N[C@H](CN(C)C)c2ccccc2)C3(C)C)cc1 [YKL-5-124]; experiment: GR value, 72 h; higher = faster growth (1 = untreated, <0 = killing);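 also: breast cancer and non-malignant breast epithelial lines, nine half-log doses, viable cells counted by Hoechst and LIVE/DEAD dye imaging versus time-zero plates and DMSO controls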
[2] = compound: T1, CN1CC[C@H](c2c(O)cc(O)c3c(=O)cc(-c4ccccc4Cl)oc23)[C@H](O)C1 [Flavopiridol]; experiment: as above
[3] = compound: CCc1cnn2c(NCc3ccc[n+]([O-])c3)cc(N3CCCC[C@H]3CCO)nc12; experiment: as above
[4] = compound: CN(C)C/C=C/C(=O)Nc1ccc(C(=O)N2CCC[C@@H](Nc3ncc(Cl)c(-c4c[nH]c5ccccc45)n3)C2)cc1 [THZ531]; experiment: as above
[5] = compound: CN(C)C(=O)c1cc2cnc(Nc3ccc(N4CCNCC4)cn3)nc2n1C1CCCC1 [LEE011/Ribociclib]; experiment: as above
[6] = compound: CC(=O)c1c(C)c2cnc(Nc3ccc(N4CCN(CCOCCOCCOCCNC(=O)COc5cccc6c5C(=O)N(C5CCC(=O)NC5=O)C6=O)CC4)cn3)nc2n(C2CCCC2)c1=O [BSJ-03-123]; experiment: as above
[7] = compound: CCN1CCN(Cc2ccc(Nc3ncc(F)c(-c4cc(F)c5nc(C)n(C(C)C)c5c4)n3)nc2)CC1; experiment: as above
[8] = compound: CC(=O)c1c(C)c2cnc(Nc3ccc(N4CCNCC4)cn3)nc2n(C2CCCC2)c1=O; experiment: as above
[9] = compound: Cc1nc(-c2cn3c(n2)-c2ccc(-c4cnn(C(C)(C)C(N)=O)c4)cc2OCC3)n(C(C)C)n1 [Taselisib/GDC0032]
[10] = compound: CCNC(=O)c1noc(-c2cc(C(C)C)c(O)cc2O)c1-c1ccc(CN2CCOCC2)cc1 [Luminespib/NVP-AUY922]
[11] = compound: O=C(c1cc(Cc2n[nH]c(=O)c3ccccc23)ccc1F)N1CCN(C(=O)C2CC2)CC1 [Olaparib/AZD2281]
[12] = compound: CC(=O)O[C@H]1C(=O)[C@@]2(C)[C@H]([C@H](OC(=O)c3ccccc3)[C@]3(O)C[C@H](OC(=O)[C@H](O)[C@@H](NC(=O)c4ccccc4)c4ccccc4)C(C)=C1C3(C)C)[C@]1(OC(C)=O)CO[C@@H]1C[C@@H]2O [Paclitaxel]
[13] = compound: T1, Flavopiridol
[14] = compound: COc1cccc2c1C(=O)c1c(O)c3c(c(O)c1C2=O)C[C@@](O)(C(=O)CO)C[C@@H]3O[C@H]1C[C@H](N)[C@H](O)[C@H](C)O1 [Doxorubicin]
[15] = compound: CN(C)C/C=C/C(=O)Nc1ccc(O[C@@H]2CCC[C@@H](Nc3ncc(Cl)c(-c4c[nH]c5ccccc45)n3)C2)cc1 [BSJ-01-175]
[16] = compound: CN(C)CC[C@H](CSc1ccccc1)Nc1ccc(S(=O)(=O)NC(=O)c2ccc(N3CCN(Cc4ccccc4-c4ccc(Cl)cc4)CC3)cc2)cc1[N+](=O)[O-] [ABT-737]
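For GR50, 72 h in this document: breast cancer and non-malignant breast epithelial cell lines, Deep Dye Drop or Dye Drop imaging, nine half-log doses, GR normalized to time-zero plates and DMSO-only controls.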

Cell Line: CAL851
- GR value ([1]; 0.001 µM): 0.137 GR
- GR value ([1]; 0.003162 µM): -0.128 GR
- GR value ([1]; 0.01 µM): -0.137 GR
- GR value ([1]; 0.03162 µM): -0.128 GR
- GR value ([1]; 0.1 µM): -0.177 GR
- GR value ([1]; 0.3162 µM): -0.275 GR
- GR value ([1]; 1 µM): -0.172 GR
- GR value ([1]; 3.162 µM): -0.25 GR
- GR value ([1]; 10 µM): -0.561 GR
- GR value ([2]; 0.0001 µM): 1.04 GR
- GR value ([2]; 0.0003162 µM): 1.01 GR
- GR value ([2]; 0.001 µM): 0.961 GR
- GR value ([2]; 0.003162 µM): 0.874 GR
- GR value ([2]; 0.01 µM): 0.718 GR
- GR value ([2]; 0.03162 µM): 0.906 GR
- GR value ([2]; 0.1 µM): 0.823 GR
- GR value ([2]; 0.3162 µM): -0.005 GR
- GR value ([2]; 1 µM): -0.159 GR
- GR value ([3]; 0.0001 µM): 0.97 GR
- GR value ([3]; 0.0003162 µM): 1.08 GR
- GR value ([3]; 0.001 µM): 0.982 GR
- GR value ([3]; 0.003162 µM): 0.681 GR
- GR value ([3]; 0.01 µM): 0.0301 GR
- GR value ([3]; 0.03162 µM): -0.178 GR
- GR value ([3]; 0.1 µM): -0.234 GR
- GR value ([3]; 0.3162 µM): -0.213 GR
- GR value ([3]; 1 µM): -0.239 GR
- GR value ([4]; 0.0001 µM): 1.12 GR
- GR value ([4]; 0.0003162 µM): 0.975 GR
- GR value ([4]; 0.001 µM): 0.997 GR
- GR value ([4]; 0.003162 µM): 0.889 GR
- GR value ([4]; 0.01 µM): 0.924 GR
- GR value ([4]; 0.03162 µM): 0.717 GR
- GR value ([4]; 0.1 µM): 0.322 GR
- GR value ([4]; 0.3162 µM): 0.0707 GR
- GR value ([4]; 1 µM): -0.218 GR
- GR value ([5]; 0.001 µM): 1.09 GR
- GR value ([5]; 0.003162 µM): 0.939 GR
- GR value ([5]; 0.01 µM): 0.859 GR
- GR value ([5]; 0.03162 µM): 1.1 GR
- GR value ([5]; 0.1 µM): 0.931 GR
- GR value ([5]; 0.3162 µM): 0.775 GR
- GR value ([5]; 1 µM): 0.874 GR
- GR value ([5]; 3.162 µM): 1.04 GR
- GR value ([5]; 10 µM): 1.11 GR
- GR value ([6]; 0.001 µM): 1.15 GR
- GR value ([6]; 0.003162 µM): 0.948 GR
- GR value ([6]; 0.01 µM): 0.849 GR
- GR value ([6]; 0.03162 µM): 0.839 GR
- GR value ([6]; 0.1 µM): 0.601 GR
- GR value ([6]; 0.3162 µM): 0.599 GR
- GR value ([6]; 1 µM): 0.447 GR
- GR value ([6]; 3.162 µM): 0.209 GR
- GR value ([6]; 10 µM): -0.238 GR
- GR value ([7]; 0.001 µM): 1.09 GR
- GR value ([7]; 0.003162 µM): 0.968 GR
- GR value ([7]; 0.01 µM): 1.08 GR
- GR value ([7]; 0.03162 µM): 1.05 GR
- GR value ([7]; 0.1 µM): 1.12 GR
- GR value ([7]; 0.3162 µM): 0.914 GR
- GR value ([7]; 1 µM): 0.617 GR
- GR value ([7]; 3.162 µM): -0.0347 GR
- GR value ([7]; 10 µM): -0.233 GR
- GR value ([8]; 0.0003162 µM): 1.05 GR
- GR value ([8]; 0.001 µM): 1.07 GR
- GR value ([8]; 0.003162 µM): 1.13 GR
- GR value ([8]; 0.01 µM): 1.09 GR
- GR value ([8]; 0.03162 µM): 1.17 GR
- GR value ([8]; 0.1 µM): 1.06 GR
- GR value ([8]; 0.3162 µM): 0.993 GR
- GR value ([8]; 1 µM): 1.07 GR
- GR value ([8]; 3.162 µM): 1.07 GR
- GR50, 72 h [9]: 0.0604 µM
- GR50, 72 h [10]: 0.00652 µM
- GR50, 72 h [11]: 5.05 µM
- GR50, 72 h [12]: 0.00273 µM
- GR50, 72 h [13]: 0.17 µM
- GR50, 72 h [14]: 0.00552 µM
- GR50, 72 h [15]: 0.0129 µM
- GR50, 72 h [16]: > 10 µM
